Patent US12161726B2, “Biomimetic vesicles and uses thereof” (Ohio State Innovation Foundation, priority 2018, dated 2024)

What was measured:
[1] = Drug loading level (HPLC / UV-Vis); format: physicochemical; conditions: drug loaded into nanoclusters
Procedure: (d). Characterizations. 1H NMR spectra of all polymer products were recorded on a Varian Mercury Plus 300 spectrometer in DMSO-d6 or CDCl3 at 25° C. Molecular weights (Mn and Mw) and polydispersity indices (PDI) of the polymers were determined by a gel permeation chrornatographer (GPC) equipped with a refractive index detector, a viscometer detector, and a light scattering detector (Viscotek, USA), DMF with 0.01 M of LiBr was used as the mobile phase with. Fourier transform infrared (FT-IR) spectra were recorded on a Bruker Tensor 27 FT-IR spectrometer. The sizes and morphologies of the NPs were studied by dynamic light scattering (DLS, ZetaSizer Nano ZS90, Malvern Instruments, USA) and transmission electron microscopy (TEM, FEI Tecnai G2 F30 TWIN 300 KV, E.A, Fischione Instruments, Inc. USA). The zeta potentials were measured by ZetaSizer Nano ZS90 (Malvern Instruments, USA). The rapamycin loading level was measured by high-performance liquid chromatography (HPLC) using ultraviolet (UV) detection at 278 nm. The JQ1 loading level was measured by UV-Vis spectrometer at 323 nm.

[2] = In vitro drug release in PBS (dialysis bag); format: physicochemical; conditions: from drug-loaded biomimetic nanoclusters, PBS pH 7.4, 37° C
Procedure: The in vitro drug release profiles from both rapamycin-loaded and JQ1-loaded biomimetic nanoclusters were studied in PBS (pH=7.4) (19). Briefly, drug-loaded biomimetic nanoclusters in the PBS (1 mg/mL, 5 mL) were enclosed in a cellulose membrane dialysis bag (molecular weight cut-off, 8 kDa). The dialysis bags were immersed in 100 mL of PBS, which was then kept in a horizontal laboratory shaker (100 rpm) at 37° C. At predetermined time intervals, 5 mL samples were collected and replaced with the same volume of PBS. The amounts of rapamycin and JQ1 in the collected samples were measured by HPLC and UV-Vis spectrometer, respectively, as indicated above.

[3] = system: neointimal hyperplasia (IH) in balloon-injured carotid arteries; experiment: Morphometric analysis of neointima after carotid artery balloon angioplasty; format: in vivo, rat; conditions: two i.v. injections (day 0 and 4), 14 days after angioplasty
Procedure: Materials and Methods: Rat carotid artery balloon angioplasty. Carotid artery balloon angioplasty was performed in male Sprague-Dawley rats (Charles River; about 400 g) as previously described (5, 20). Briefly, rats were anesthetized with isoflurane (5% for inducing and 2.5% for maintaining anesthesia). A longitudinal incision was made in the neck and carotid arteries were exposed. A 2-F balloon catheter (Edwards Lifesciences, Irvine, CA) was inserted through an arteriotomy on the left external carotid artery. To produce arterial injury, the balloon was inflated at a pressure of 2 atm and withdrawn to the carotid bifurcation and this action was repeated three times. The external carotid artery was then permanently ligated, and blood flow was resumed. Drug-loaded biomimetic nanoclusters or compound solutions were injected via rat tail vein. […]
Materials and Methods: Morphometric analysis of neointima. […] Planimetric parameters as follows were measured on the sections and calculated using Image J: area inside external elastic lamina (EEL area), area inside internal elastic lamina (IEL area), lumen area, intima area (=IEL area−lumen area), and media area (=EEL area−IEL area). Intimal hyperplasia was quantified as a ratio of intima area versus media area. […] The means from all the animals in each treatment group were then averaged, and the standard error of the mean (SEM) was calculated. […]

[4] = system: pro-inflammatory activation of ECs and monocyte recruiting; conditions: hypercholesterolemic murine model of atherosclerosis; cited from earlier work
[5] = system: human umbilical vein ECs; conditions: cited from earlier work
[6] = system: restenosis; conditions: rat model, earlier study (ref 5); cited from earlier work

Cc1sc2c(c1C)C(c1ccc(Cl)cc1)=N[C@@H](CC(=O)OC(C)(C)C)c1nnc(C)n1-2 [JQ1]
Drug loading level [1]: 21.5%
In vitro drug release profile [2]: released in a sustainable manner without a burst release
Effect on IH (I/M ratio) [3]: failed to mitigate IH
Pro-inflammatory activation of ECs and monocyte recruiting in vivo [4]: inhibitory effects
TNFα-induced pathogenic EC activation (E-selectin, VCAM1, NF-κB translocation) [5]: inhibits TNFα-induced pathogenic EC activation
Inhibition of restenosis [6]: effective inhibitor of restenosis
